From patent US5036097A, “Phenylbutyl nitrone compositions and methods for prevention of gastric ulceration” (Oklahoma Medical Research Foundation, priority 1990, dated 1991) come the findings set out here.

“Also recorded” adds a separate entry of the source.

In one test the test system is gastric ulceration. Put plainly: NSAID-induced gastric ulceration in rats (surface area of ulceration). Type of test: in vivo, rat (male Sprague-Dawley). The settings on record: 4 h. As to the method:
Male Sprague-Dawley rats (Charles River, Wilmington, Mass.) weighing 300-325 g were housed individually in wire bottomed cages to prevent ingestion of hair and feces. […] Piroxicam or aspirin and other NSAIDS were suspended in a vehicle of 1% carboxymethylcellulose, 0.1% Tween 80 and 0.15 M HCl, and administered in a volume of 1 ml on the morning of study by oral gavage using an 18 gauge curved blunt needle (Popper and Sons, New Hyde Park, N.Y.). One ml of vehicle alone was administered for control experiments. HCl was added to the vehicle to insure an acid environment in the stomach in all studies. […] Four hours after the administration of NSAID or vehicle, rats were euthanized with sodium pentobarbital (100 mg/kg IP), and the surface area of ulceration per stomach was quantitated using morphometric techniques. Stomachs were removed, the lumen was exposed by an incision along the radius of greater curvature, and the stomach was washed in phosphate buffered saline. The luminal surface was laid out on a flat surface with gross folds removed by gentle distension. The percentage of surface involved with submucosal hemorrhage was then determined by point counting, as described by Weibel, E. R. Stereological Methods: Practical Methods for Biological Morphometry. […] This was done by tabulation of the percentage of points over ulcerations using a point counting eyepiece graticle (16×16 points in a square format). At the 12X magnification used on the Wild dissecting microscope (Wild-Heerbrugg, Basel, Switzerland), the graticle covered a 1 cm^2 area of the surface. Four to five non-overlapping sampling sites were taken to fully cover the exposed surface. To determine the total luminal surface area, the outline of the outer boundary of the stomach was traced using a transparent acetate sheet, and the area was determined from planimetry. The surface area of ulcerated regions per stomach was then determined by multiplying the surface density of ulceration regions by the luminal surface area of the stomach.
Differences in total luminal surface area in cm^2, surface area of ulcerated regions per stomach and biochemical analyses between each treatment intervention and its corresponding untreated control group are compared using the Mann-Whitney U Test, Dixon, W. J., Massey, F. J., Jr. Introduction to statistical methods, 4th edition. […] In vitro studies are compared using the Student's unpaired T-test, Dixon, W. J., Massey, F. J., Jr. Introduction to statistical methods, 4th edition. […] Values are expressed as mean±SEM. Significance is assumed when P<0.05.
Phenyl N-tert-butyl nitrone is obtained from Aldrich Chemicals, Milwaukee, Wis. All other chemicals and pharmaceuticals are from Sigma Chemical.

In test [1] the test system is gastric mucosal glutathione. Put plainly: glutathione in gastric mucosa. Type of test: in vivo, rat. The settings on record: 4 h after piroxicam. As to the method: MEASUREMENT OF GLUTATHIONE IN GASTRIC MUCOSA.
Gastric mucosal glutathione is measured in piroxicam-and vehicle-treated rat stomachs. Four hours after piroxicam or vehicle, stomachs are opened, washed with ice cold saline, and spread along a flat surface with lumens exposed. The gastric mucosa is then removed by scraping with a surgical blade. The mucosa is homogenized on ice in 1 ml of 1.15% KCl. Two aliquots of 250 μl are snap frozen in liquid nitrogen and stored at -70° C. for later determination of total glutathione by the method of Anderson, M. E. Methods Enzymol 113:548-555 (1985) and protein by a modification of the Lowry method, described by Bennett, J. P. Techniques Lipid Membrane Biochem. B408:1-22 (1982), using bovine serum albumin as a standard. Results are expressed as nmole/mg protein. To measure oxidized glutathione (GSSG), the remaining 500 μl is mixed with an equal volume of N-ethylmaleimide (NEM) in water (10 mM final concentration of NEM), snap frozen and stored at -70° C. After thawing for analysis, this mixture is passed over a C-18 Sep-Pak column (Waters Associates, Milford, Mass.) and washed with 1 ml phosphate buffer (pH 7.5). This technique for removing excess NEM has been previously shown to result in >90% recovery of GSSG. GSSG is then assayed by the method used above to determine total glutathione.

As for `CN1C(C(=O)Nc2ccccn2)=C(O)c2ccccc2S1(=O)=O` [piroxicam], the “gastric ulceration, in words” value in the test on gastric ulceration (oral gavage, 23 mg/kg piroxicam, vs vehicle, 23 mg/kg) is listed as “prominent ulceration along the ridges of gastric rugae; also recorded: consistently produced ulceration; also recorded: profound gastric ulceration”. Besides, the “mean ulceration in piroxicam-treated control stomachs” value in the test on gastric ulceration (piroxicam 23 mg/kg p.o., absence of an intervention) is reported as 0.215 cm^2. The “total glutathione in gastric mucosa” value in test [1] (difference vs vehicle not statistically significant) is recorded as 0.33±0.03 nmoles/mg protein. Further, the “fraction of GSSG” value in test [1] (vehicle 6.4 0.7%, not statistically significant) was found to be 8.9±0.9%.
